These results are taken from PMC11651181, “Discovery of 6α-Thiazolylcarboxamidonaltrexamine Derivative (NTZ) as a Potent and Central Nervous System Penetrant Opioid Receptor Modulator with Drug-like Properties for Potential Treatment of Opioid Use Disorder” (ACS Pharmacology & Translational Science, 2024).

Where a name gives a salt, the structure may show the parent alone.

One data set deals with T1, μ opioid receptor (MOR) (Mus musculus, UniProt P42866).
T1 construct: expressed in transfected cells; host or cells: CHO (mMOR-CHO), membrane preparation
T1 sequence (P42866 whole entry): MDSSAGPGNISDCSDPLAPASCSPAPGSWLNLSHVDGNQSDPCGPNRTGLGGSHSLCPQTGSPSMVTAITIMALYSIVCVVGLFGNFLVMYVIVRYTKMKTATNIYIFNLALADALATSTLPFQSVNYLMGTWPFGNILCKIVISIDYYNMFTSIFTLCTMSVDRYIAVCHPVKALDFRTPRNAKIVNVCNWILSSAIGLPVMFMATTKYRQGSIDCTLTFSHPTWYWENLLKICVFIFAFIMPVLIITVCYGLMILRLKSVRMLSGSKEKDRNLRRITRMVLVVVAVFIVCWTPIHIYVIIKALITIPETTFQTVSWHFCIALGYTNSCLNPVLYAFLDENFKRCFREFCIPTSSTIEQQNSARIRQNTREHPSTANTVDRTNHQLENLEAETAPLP
In words: Competitive radioligand binding assay, MOR. How it is done:
The competition binding assay was performed using monoclonal mouse opioid receptors expressed in CHO cell lines (monoclonal human δ opioid receptor was used for the DOR assay).
The bound radioligand was separated using a Brandel harvester. Specific binding to the MOR, KOR, and DOR was calculated by subtracting the binding observed in the presence of 5 μM naltrexone, U50488, and SNC80, respectively, from the binding in their absence. Relative affinity values (IC50) were determined by fitting displacement binding inhibition data to a nonlinear regression model using GraphPad Prism 8.0 (GraphPad Software, San Diego, CA). The % inhibition was calculated using the formula: % inhibition = 100% - [(binding with the tested compound - nonspecific binding)/specific binding] × 100%. The IC50 values were converted to Ki values using the Cheng-Prusoff equation: Ki = IC50/ [1 + ([L*]/KD)], where [L*] is the concentration of the radioligand and KD is the KD of the radioligand.[68]

Data set [1] in a line: Caco-2 permeability studies. Type of data set: in vitro ADME. As to conditions: human, 1 h incubation. How it is done: Caco-2 cells (HTB-37) were cultured in T75 flasks using DMEM supplemented with 10% FBS, 1% glutamine, penicillin, and streptomycin at 37 °C and 5% CO2. Cells were passaged at 80–90% confluency and seeded into Millipore 96-well plates (25,000 cells/well) to form monolayers, with media changed every 2–3 days for 21 days until 100% confluency. Permeability studies involved adding 10 μM compound 6 to the apical (A) or basolateral (B) side and measuring permeation across the monolayer. Lucifer yellow dye (100 μM) was used in the A-side buffer as a control. Incubation lasted 1 h, and permeability was assessed using ranitidine/colchicine (low permeability) and labetalol/propranolol (high permeability) as controls. Samples were collected, quenched with methanol, centrifuged, and analyzed by HPLC-MS/MS to determine peak area ratios.
Data was expressed as [drawing 1] here VR is the volume of the receiver chamber. CR,end is the concentration of the test compound in the receiver chamber at the final time point, Δt denotes the incubation time, and A is the surface area of the cell monolayer. CD,mid is the average midpoint concentration of the test compound on the donor side, calculated as the mean of the donor concentrations at 0 min and at the end time point. […] Test compound concentrations were determined based on their peak areas.

Another data set concerns the target T2, CYP2C19 (Homo sapiens, UniProt P33261).
T2 construct: Eurofins Panlabs, Inc. (contract laboratory)
Put plainly: Cytochrome P450 inhibition assay, CYP2C19. The class given is in vitro ADME. The method, then: (§1) The ADMET assessment including the hERG inhibitory activity, plasma protein binding, in vitro metabolic stability profile, CYP inhibitory effect and mutagenic evaluation were conducted by Eurofins Panlabs, Inc.[21],[61],[69]−[71]

Another data set deals with T3, MOR (Mus musculus, UniProt P42866).
T3 construct: expressed in transfected cells; host or cells: CHO (MOR-CHO), membrane preparation
T3 sequence (P42866 whole entry): as above
Put plainly: MOR [35S]GTPγS functional assay. Type of data set: biochemical. How it is done:
The [^35S]GTPγS functional assay was used to assess the efficacy of compounds at the MOR, KOR, and DOR. In this assay, 10 μg of MOR-CHO/KOR-CHO/DOR-CHO membrane protein was incubated in 500 μL of TME with 100 mM NaCl, 20 μM GDP, 0.1 nM [^35S]GTPγS, and varying concentrations of the compound for 1.5 h in a 30 °C water bath. Protein concentration was adjusted using the Bradford protein assay. […] After incubation, bound radioactivity was separated by filtration through GF/B glass fiber filters and measured by liquid scintillation counting. All assays were performed in duplicate and repeated at least three times. Net stimulated [35S]GTPγS binding was calculated as agonist-stimulated minus basal binding.

The next data set has as its target T4, CYP2C9 (Homo sapiens, UniProt P11712).
T4 construct: Eurofins Panlabs, Inc. (contract laboratory)
In words: Cytochrome P450 inhibition assay, CYP2C9. The class given is in vitro ADME. The method, then:
as §1

T4 sequence (P11712 whole entry): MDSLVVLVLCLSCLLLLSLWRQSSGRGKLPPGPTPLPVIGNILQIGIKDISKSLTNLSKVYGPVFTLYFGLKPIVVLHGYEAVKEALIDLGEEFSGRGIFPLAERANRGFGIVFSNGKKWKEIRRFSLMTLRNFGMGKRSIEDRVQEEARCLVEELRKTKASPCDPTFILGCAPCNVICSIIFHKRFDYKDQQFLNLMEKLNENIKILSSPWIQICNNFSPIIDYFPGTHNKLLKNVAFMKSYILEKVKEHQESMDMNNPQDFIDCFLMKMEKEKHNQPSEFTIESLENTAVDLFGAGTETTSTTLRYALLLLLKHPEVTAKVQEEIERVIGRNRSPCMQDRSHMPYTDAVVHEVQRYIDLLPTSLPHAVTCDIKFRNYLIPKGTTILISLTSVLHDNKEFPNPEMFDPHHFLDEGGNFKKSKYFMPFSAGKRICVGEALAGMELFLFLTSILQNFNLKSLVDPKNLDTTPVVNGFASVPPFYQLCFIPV
T2 sequence (P33261 whole entry): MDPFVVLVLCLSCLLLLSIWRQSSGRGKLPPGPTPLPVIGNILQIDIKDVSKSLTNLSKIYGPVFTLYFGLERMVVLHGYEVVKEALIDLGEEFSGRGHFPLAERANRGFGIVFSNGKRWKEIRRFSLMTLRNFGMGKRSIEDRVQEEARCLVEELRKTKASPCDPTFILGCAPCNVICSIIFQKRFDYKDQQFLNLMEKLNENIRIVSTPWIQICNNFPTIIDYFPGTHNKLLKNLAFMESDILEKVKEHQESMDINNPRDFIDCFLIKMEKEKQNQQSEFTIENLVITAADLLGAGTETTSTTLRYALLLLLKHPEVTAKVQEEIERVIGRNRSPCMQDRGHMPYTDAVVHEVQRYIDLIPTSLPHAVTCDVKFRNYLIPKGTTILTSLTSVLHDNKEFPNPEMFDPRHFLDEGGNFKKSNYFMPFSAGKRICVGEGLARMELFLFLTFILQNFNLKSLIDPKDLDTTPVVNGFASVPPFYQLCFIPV

`O=C(N[C@H]1CC[C@@]2(O)[C@H]3Cc4ccc(O)c5c4[C@@]2(CCN3CC2CC2)[C@H]1O5)c1nccs1` [Compound 6, 17-Cyclopropylmethyl-3,14β-dihydroxy-4,5α-epoxy-6α-(2′-thiazolylcarboxamido)-morphinan hydrochloride] came in with a Ki on μ opioid receptor (MOR) of 0.25 ± 0.03 nM. This compound yielded a Papp A→B at 1 h, 10 μM in data set [1] of 13.1 ×10⁻⁶ cm/s. Moreover, in data set [1], the Papp B→A at 1 h, 10 μM was determined as 33.2 ×10⁻⁶ cm/s. Moreover, the inhibition at 10 µM at CYP2C19 (1.0E-05 M) was found to be 78.4%; on CYP2C9 (1.0E-05 M), 16.3%. In addition, the inhibition at 100 nM turned out to be 13.2% on CYP2C19 (1.0E-07 M) and 0.6% on CYP2C9 (1.0E-07 M). The same compound displayed an EC50 on MOR of 2.16 ± 0.38 nM. The maximal effect (Emax) at MOR (read-out: MOR [35S]GTPγS Binding %Emax of DAMGO, relative to 3 μM DAMGO, mean ± SEM) lay in the range of 6 to 11%. For the same compound, the “MOR [35S]GTPγS Binding %Emax of DAMGO” value at MOR (relative to 3 μM DAMGO, mean ± SEM) was 11.3 ± 1.30%.
